Laboratory results: patent US11737989B2, “Clevidipine nanoparticles and pharmaceutical compositions thereof” (CHIESI Farmaceutici S.p.A., priority 2014, dated 2023)

Columns and labels:
[1] = cited from earlier work
[2] = Oxidative degradation of clevidipine: influence of oxygen content in headspace (H324/78); type: physicochemical; settings: exposed to ambient light
Description: Nanoparticle formulations with clevidipine (formulation numbers 31, 40 and 42) as well as clevidipine solutions were purged either with nitrogen or compressed air, and exposed to ambient light to determine the effect of head space oxygen on the formation of oxidative degradation product, H324/78.

[3] = in vivo; cited from earlier work

H324/78 (% Area) ([2]; purged with compressed air (Air)): 3.06 % Area
H324/78 (% Area) ([2]; purged with nitrogen (N2)): 2.54 % Area
SMILES: CCCC(=O)OCOC(=O)C1=C(C)NC(C)=C(C(=O)OC)C1c1cccc(Cl)c1Cl (centres unmarked) [Clevidipine, clevidipine]
Solubility in lipids [1]: moderate
Solubility in water [1]: negligible
Initial phase half-life [3]: about one minute
